Measurements: ChEMBL document CHEMBL4602665, “Amphiepicoccins A-J: Epipolythiodioxopiperazines from the Fish-Gill-Derived Fungus Epicoccum nigrum HDN17-88” (J Nat Prod, 2020)
Values after ≈ are worked out from the molar mass of the structure shown.

Tested on: Bacillus subtilis
Experiment: Growth inhibition of Bacillus subtilis
Assay type: functional
Conditions: not given

Going from `CO[C@H]1CC(=O)[C@@H]2C[C@@]3(SC)C(=O)N4[C@@H]5[C@@H](O)[C@H]6CC(=O)[C@@H]5C[C@@]4(SS6)C(=O)N3[C@@H]2[C@H]1O` to `CO[C@H]1CC(=O)[C@@H]2C[C@@]3(SC)C(=O)N4[C@@H]5[C@@H](O)[C@H]6CC(=O)[C@@H]5C[C@@]4(S6)C(=O)N3[C@@H]2[C@H]1O`, the MIC rises from 13 µM (≈ 6.51 µg/mL) to 25 µM (≈ 11.7 µg/mL) (1.9-fold).

Tested on: Human alphaherpesvirus 2
Experiment: Antiviral activity against Herpes simplex virus 2 infected in African green monkey Vero cells assessed as inhibition of virus-induced cytopathogenic effect after 24 hrs by crystal violet staining based assay
Assay type: functional, organism-based
Conditions: Human alphaherpesvirus 2, Vero

Going from `Nc1nc2c(ncn2COCCO)c(=O)[nH]1` [ACYCLOVIR] to `O=C1C[C@H]2SS[C@@]34C[C@@H]1[C@@H]([C@H]2O)N3C(=O)c1cc2cc(O)ccc2n1C4=O`, the IC50 rises from 31 µM to 70 µM (2.3-fold).

First: CO[C@H]1CC(=O)[C@@H]2C[C@@]3(SC)C(=O)N4[C@@H]5[C@@H](O)[C@H]6CC(=O)[C@@H]5C[C@@]4(S6)C(=O)N3[C@@H]2[C@H]1O
Second: CS[C@@]12C[C@H]3C(=O)C=C[C@H](O)[C@H]3N1C(=O)[C@@]13C[C@H]4C(=O)C[C@@H](SS1)[C@H](O)[C@H]4N3C2=O
The IC50 of the first is 2.2-fold lower: 29 µM for the first, 64 µM for the second. The first is the more potent here.
